Assay results published in patent publication US20040106802A1, “Novel compounds and therapeutic uses thereof” (TORRENT PHARMACEUTICALS LTD., priority 2002, published 2004).
Structures can show the parent of a compound that is named as a salt.

Target: T1, Porcine DPP-IV (Sus scrofa, UniProt P22411)
T1 construct: purchased Sigma-Aldrich Germany
Assay: Assay of DPP-IV enzyme inhibitory activity (spectrophotometric, Gly-Pro-pNA cleavage)
Assay type: biochemical
Details: Porcine DPP-IV, Gly-Pro-pNA substrate, 30° C.; mean ± SD of three experiments except compound Nos. 133 & 139; read-out: IC50 (μM) Mean ± SD, inhibitory activity on DPP-IV enzyme activity
Experimental: Assay of DPP-IV Enzyme Inhibitory Activity.
The assay method is a modified method (as described by Welch et al, 1998) based on spectrophotometric determination of the product formed by penultimate proline cleaving activity of the enzyme.
Assay protocol involves incubation of the enzyme dipeptidyl peptidase IV with the test substance at 30° C. for 30 min followed by addition of this reaction mixture to the substrate Gly-Pro-pNA that was equilibrated at 30° C. for 2 min. The enzyme cleaves the substrate at penultimate proline and releases p-nitroanilide, the optical density of which is measured at 385 nm. The formation of p-nitroanilide will be reduced in the presence of inhibitor. […] The activity of molecule is expressed in terms of % inhibition. At least three different concentrations were tried out for each of the test substances. The percentage inhibitions for each of the concentrations were plotted and an IC50 of the test compound was worked out. The enzyme inhibitory activity of different test compounds were compared based on the IC50 values.
The percentage inhibition % I, is calculated using the formula:
% I=[(1−vi/v0)]*100 where vi and v0 are the Vmax values with and without the test substance, respectively.
Substrate solution: 0.5 mM in 45 mM phosphate buffer
Substrate used: Gly-Pro-p-nitroanilide (Source: Sigma-Aldrich Co. Germany)
3.288 mg substrate in 1 ml 45 mM phosphate buffer was prepared as stock solution. 0.25 ml of this stock solution was diluted to 5 ml to get 0.5 mM substrate solution (90 μl to be added in each well). The stock solution of the substrate was used within three days of preparation.
Enzyme solution: Porcine DPP-IV (Sigma-Aldrich Germany) was used throughout the study. 0.4 mU in 80 μl of Tris. HCl buffer was prepared. Fresh solutions were prepared everyday for the assays.
Various concentrations of inhibitor were used: 0.391 μM, 0.781 μM, and 3.125 μM. Solutions of inhibitor were prepared and used on the same day.
280 μl of enzyme solution (0.4-mU/80 μl in Tris HCl buffer) was added to the eppendorf containing 70 μl solution of inhibitor or vehicle and mixed. This reaction mixture was incubated for 30 min at 30° C. The 96 well plate containing substrate solution was thermally equilibrated in the spectrophotometer for 2 min at 30° C. Later 100 μl of the enzyme-inhibitor pre-incubation solution was added to respective wells in a 96 well plate. Each concentration of the inhibitor was tested in triplicates.
The rate of change in UV absorbance (in presence of various concentrations of the inhibitor) was measured at 385 nm, with respect to wells containing only 0.5 mM substrate in 45 mM phosphate buffer as blank at every 10 min for 2 hours after adding enzyme-inhibitor mixture to wells containing substrate solution.

T1 sequence (P22411 whole entry): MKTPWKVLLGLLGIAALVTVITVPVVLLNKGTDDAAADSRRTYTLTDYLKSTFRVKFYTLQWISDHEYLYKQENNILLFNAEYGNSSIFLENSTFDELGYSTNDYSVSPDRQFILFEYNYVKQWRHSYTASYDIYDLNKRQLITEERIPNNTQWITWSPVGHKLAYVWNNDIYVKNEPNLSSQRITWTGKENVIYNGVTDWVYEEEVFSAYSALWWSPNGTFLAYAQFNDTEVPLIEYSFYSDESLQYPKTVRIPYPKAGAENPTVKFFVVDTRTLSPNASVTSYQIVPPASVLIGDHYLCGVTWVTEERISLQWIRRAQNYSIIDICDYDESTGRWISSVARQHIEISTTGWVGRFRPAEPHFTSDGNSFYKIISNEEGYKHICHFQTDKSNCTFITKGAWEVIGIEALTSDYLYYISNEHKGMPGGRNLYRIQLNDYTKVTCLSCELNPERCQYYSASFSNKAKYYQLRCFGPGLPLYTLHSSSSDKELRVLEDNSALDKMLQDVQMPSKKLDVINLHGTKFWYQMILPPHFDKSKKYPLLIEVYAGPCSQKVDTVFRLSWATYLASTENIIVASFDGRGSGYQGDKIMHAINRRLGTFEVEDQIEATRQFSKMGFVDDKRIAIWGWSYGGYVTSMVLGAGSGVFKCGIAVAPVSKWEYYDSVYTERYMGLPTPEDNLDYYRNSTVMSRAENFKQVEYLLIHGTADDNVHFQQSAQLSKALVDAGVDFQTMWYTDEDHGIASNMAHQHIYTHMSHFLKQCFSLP

Structure (SMILES) | IC50 [µM]
N#CC1CSCN1C(=O)CN(N)Cc1ccc([N+](=O)[O-])cc1 (stereo not shown) [Compound No. 17, 3-[1-Oxo-2-((1-(4-nitrophenylmethyl))hydrazino)]ethyl-4-cyano thiazolidine trifluoroacetate] | 35.8 ± 1.03
CCC(C)N(N)CC(=O)N1CSCC1C#N (stereo not shown) [Compound No. 23, 3-[1-Oxo-2-((1-methylpropyl)hydrazino)]ethyl-4-cyano thiazolidine trifluoroacetate] | 2.94 ± 0.15
CC(C)NN(CC(=O)N1CSCC1C#N)C1CCCCC1 (stereo not shown) [Compound No. 36, 3-[1-Oxo-2-(1-cyclohexyl-2-isopropyl) hydrazino]ethyl-4-cyanothiazolidine hydrochloride] | 23.3 ± 2.54
N#CC1CSCN1C(=O)CN(N)C1CCN(Cc2ccc([N+](=O)[O-])cc2)CC1 (stereo not shown) [Compound No. 61, 3-[1-Oxo-2-(1-(1-(4-nitrophenylmethyl)-piperidin-4-yl) hydrazino]ethyl-4-cyanothiazolidine trifluoroacetate] | 0.7 ± 0.03
CC(C)N(N)CC(=O)N1CCCC1C#N (stereo not shown) [Compound No. 41, 1-[1-Oxo-2-isopropyl-2-hydrazino]ethyl-2-cyano pyrrolidine trifluoroacetate] | 48.3 ± 1.75
N#Cc1ccc(NC(=O)CNC2CCC(N(N)CC(=O)N3CSCC3C#N)CC2)cc1 (stereo not shown) [Compound No. 112, 3-[1-oxo-2-[1-(4-(2-oxo-2-(4-cyanophenyl)aminoethyl)aminocyclohex-1-yl)]hydrazino]ethyl-4-cyanothiazolidine bis-trifluoroacetate] | 1.47 ± 0.07
N#CC1CCCN1C(=O)CN(N)c1ccccc1 (stereo not shown) [Compound No. 3, 1-[1-Oxo-2-((1-phenyl)-hydrazino)] ethyl-2-cyano pyrrolidine trifluoroacetate] | 34.1 ± 4.57
N#CC1CSCN1C(=O)CN(NC(=O)NCCc1ccccn1)C(=O)NCCc1ccccn1 (stereo not shown) [Compound No. 46, 3-[1-Oxo-2-(1,2-bis-(2-(2-pyridyl)ethylaminocarbonyl)hydrazino)]ethyl-4-cyano thiazolidine bis trifluoroacetate] | 78.6 ± 4.58
CC(C)N1CCC(N(N)CC(=O)N2CSCC2C#N)CC1 (stereo not shown) [Compound No. 51, 3-[1-Oxo-2-(1-isopropyl-4-piperidinyl) hydrazino)]ethyl-4-cyano thiazolidine trifluoroacetate] | 3.5 ± 0.06
N#CC1CCCN1C(=O)CN(N)C1CCN(CC(=O)Nc2ccc(Cl)cn2)CC1 (stereo not shown) [compound 124, 3-[1-oxo-2-(1-(1-(2-oxo-2-(5-chloropyridin-2-yl)aminoethyl)piperidin-4-yl))hydrazino]ethyl-2-cyanopyrrolidine, tris-trifluoroacetate] | 3.7 ± 0.5
N#CC1CSCN1C(=O)CN(N)C1CCN(CC(=O)NCc2ccccc2F)CC1 (stereo not shown) [compound 122, 3-[1-oxo-2-(1-(1-(2-oxo-2-(2-flurobenzyl)aminoethyl)piperidine-4-yl))hydrazino]ethyl-4-cyanothiazolidine, bis-trifluoroacetate] | 0.51 ± 0.05
CC1CCC(CN(N)CC(=O)N2CCCC2C#N)CC1 (stereo not shown) [Compound No. 39, 1-[1-Oxo-2-(1-(4-methylcyclohexylmethyl)hydrazino)]ethyl-2-cyanopyrrolidine trifluoroacetate] | 50.4 ± 4.59
N#CC1CSCN1CC(=O)NN(CC(=O)N1CCCC1C#N)C1CCCCC1 (stereo not shown) [Compound No. 50] | 60.1 ± 5.5
Cc1cnc(C(=O)NC2CCC(N(N)CC(=O)N3CSCC3C#N)CC2)cn1 (stereo not shown) [compound 139, 3-[1-oxo-2-(1-(1-(5-methylpyrazine-2-ylcarbonyl)amino-4-cyclohexyl)) hydrazino]ethyl-4-cyanothiazolidine, tris-trifluoroacetate] | 0.485 ± 0.01
N#CC1CCCN1C(=O)CN(N)c1ccccn1 (stereo not shown) [Compound No. 27, 1-[1-Oxo-2-(1-(2-Pyridyl)-hydrazino)]ethyl-2-cyano pyrrolidine bis-trifluoroacetate] | 43 ± 2.76
Cc1ccc(S(=O)(=O)N2CCC(N(N)CC(=O)N3CSCC3C#N)CC2)cc1 (stereo not shown) [Compound No. 55, 3-[1-Oxo-2-(1-(1-(4-methylphenylsulphonyl)-4-piperidinyl)-hydrazino)]ethyl-4-cyanothiazolidine trifluoroacetate] | 2.7 ± 0.16
N#CC1CSCN1C(=O)CN(N)C1CCN(CC(=O)Nc2nc3ccccc3s2)CC1 (stereo not shown) [compound 138] | 0.104 ± 0.009

Structure (SMILES) | IC50 [µM]
N#Cc1cc(CN2CCC(N(N)CC(=O)N3CSCC3C#N)CC2)ccc1-c1ccccc1 (stereo not shown) [Compound No. 109, 3-[1-oxo-2-[1-(1-(2-cyanobiphenyl-4-yl)methyl)piperidine-4-yl]hydrazino]ethyl-4-cyanothiazolidine bis-trifluoroacetate] | 1.02 ± 0.14
CCC(C)N(N)CC(=O)N1CCCC1C#N (stereo not shown) [Compound No. 22, 1-[1-Oxo-2-((1-methylpropyl)hydrazino)]ethyl-2-cyano pyrrolidine trifluoroacetate] | 76.5 ± 7.51
N#CC1CSCN1C(=O)CNN (stereo not shown) [Compound No. 15, 3-[1-Oxo-2-(1-hydrazino)]ethyl-4-cyano thiazolidine trifluoroacetate] | 41.9 ± 11.6
CC(C)CN(N)CC(=O)N1CCCC1C#N (stereo not shown) [Compound No. 10, 1-[1-Oxo-2-(1-(2-methylpropyl)hydrazino)]ethyl-2-cyano pyrrolidine trifluoroacetate] | 69.8 ± 17.5
N#CC1CSCN1C(=O)CN(N)C1CCN(CC(=O)NC2CCCCC2)CC1 (stereo not shown) [compound 125, 3-[1-oxo-2-(1-(1-(2-oxo-2-cyclohexyl)aminoethyl)piperidin-4-yl)hydrazino]ethyl-4-cyanothiazoline, bis-trifluoroacetate] | 0.506 ± 0.06
N#CC1CSCN1C(=O)CN(N)C12CCC(CC1)C2 (stereo not shown) [Compound No. 63, 3-[1-Oxo-2-(1-(1-norcamphoranyl) hydrazino)]ethyl-4-cyanothiazolidine trifluoroacetate] | 0.73 ± 0.02
N#CC1CCCN1CC(=O)NN(CC(=O)N1CCCC1C#N)C1CCCCC1 (stereo not shown) [Compound No. 45, 1-[1-Oxo-2-[(1-cyclohexyl)-2-(2-cyano-1-pyrrolidinoacetyl)]hydrazino]ethyl-2-cyanopyrrolidine trifluoroacetate] | 44 ± 1.92
Cc1nc(NC(=O)CN2CCC(N(N)CC(=O)N3CSCC3C#N)CC2)sc1C (stereo not shown) [compound 145, trihydrochloride] | 0.715 ± 0.06
N#CC1CCCN1C(=O)CN(N)C1CCCCCC1 (stereo not shown) [Compound No. 30, 1-[1-Oxo-2-((1-Cycloheptyl)-hydrazino)]ethyl-2-cyano pyrrolidine trifluoroacetate] | 35.1 ± 2.66
CC1CCC(N(CC(=O)N2CSCC2C#N)NC2CCN(C(C)C)CC2)CC1 (stereo not shown) [Compound No. 54, 3-[1-Oxo-2-[1-(4-methylcyclohexyl)-2-(1-isopropyl-4-piperidinyl)]hydrazino]ethyl-4-cyanothiazolidine] | 6.43 ± 0.15
COCCNC(=O)CN1CCC(N(N)CC(=O)N2CSCC2C#N)CC1 (stereo not shown) [compound 135, 3-[1-oxo-2-(1-(1-(2-oxo-2-(2-methoxyethyl)aminoethyl)piperidin-4-yl))hydrazino]ethyl-4-cyanothiazolidine, bis-trifluoroacetate] | 1.03 ± 0.035
CC(C)(C)C1CCC(N(N)CC(=O)N2CSCC2C#N)CC1 (stereo not shown) [Compound No. 49, 3-[1-Oxo-2-(1-(4-tertbutylcyclohexyl)hydrazino)]ethyl-4-cyanothiazolidine trifluoroacetate] | 1.04 ± 0.25
N#CC1CSCN1C(=O)CN(N)C1CCN(CC(=O)NC2CC2)CC1 (single isomer, unassigned) [compound 146, 3-[1-oxo-2-(1-(1-(2-cyclopropyl-1-yl)aminoethyl)piperidin-4-yl)) hydrazino]ethyl-4-cyano thiazolidine, dihydrochloride] | 217 ± 9.07
CC(C)OCCCNC(=O)CN1CCC(N(N)CC(=O)N2CSCC2C#N)CC1 (stereo not shown) [compound 126] | 0.468 ± 0.005
N#CC1CSCN1C(=O)CN(N)c1ccccc1 (stereo not shown) [Compound No. 9, 3-[1-Oxo-2-((1-phenyl)hydrazino)]ethyl-4-cyano Thiazolidine Trifluoroacetate] | 6.18 ± 0.88
N#CC1CCCN1C(=O)CN(N)C1CCCc2ccccc21 (stereo not shown) [Compound No. 48, 1-[1-Oxo-2-(1-tetralinyl)hydrazino]ethyl-2-cyanopyrrolidine trifluoroacetate] | 45.2 ± 1.21
N#CC1CCCN1C(=O)CNN (stereo not shown) [Compound No. 4, 1-[1-Oxo-2-(1-hydrazino)]ethyl-2-cyano pyrrolidine trifluoroacetate] | 88.6 ± 18.1
